Data reported in patent publication US11292791B2 (priority 2017, dated 2022).

These molecules were tested against BRD4 (Homo sapiens (Human), UniProt O60885). Settings: read-out: BRD4 IC50 (μM gmean).

SMILES	IC50 [µM]
COC(=O)N1c2ccc3c(nc(C(C)Cn4cc(C)cn4)n3C3CCS(=O)(=O)C3)c2CC[C@@H]1C (stereo partly shown) [Example 949]	1 to 1000
COC(=O)N1c2ccc3c(nc(CN4CCC5(CC5)CC4=O)n3[C@@H]3CCC[C@@H](C(=O)O)C3)c2CC[C@@H]1C [Example 688]	1 to 1000
COC(=O)N1c2ccc3c(nc(Cc4ccccc4)n3[C@H]3C[C@@H](C(=O)O)C3)c2CC[C@@H]1C [Example 20]	1 to 1000
COC(=O)N1c2ccc3c(nc(Cn4cc(C(C)C)cn4)n3[C@H]3CC[C@H](C(=O)O)CC3)c2CC[C@@H]1C [Example 714]	1 to 1000
COC(=O)N1c2ccc3c(nc(CCn4cccn4)n3CCNCCC#N)c2CC[C@@H]1C [Example 306]	1 to 1000
COC(=O)N1c2ccc3c(nc(C(O)C4CCC(F)(F)CC4)n3C3CCCC(C(=O)O)C3)c2CC[C@@H]1C (stereo partly shown) [Example 699]	1 to 1000
COC(=O)N1c2ccc3c(nc(Cc4ccccc4)n3[C@H]3CCC[C@@H](c4nnn[nH]4)C3)c2CC[C@@H]1C [Example 280, methyl (S)-3-((1S,3R)-3-(1H-tetrazol-5-yl)cyclohexyl)-2-benzyl-7-methyl-3,7,8,9-tetrahydro-6H-imidazo[4,5-f]quinoline-6-carboxylate]	1 to 1000
COC(=O)N1c2ccc3c(nc(N(C)c4cccc(F)c4)n3[C@H]3CC[C@H](C(=O)O)CC3)c2CC[C@@H]1C [Example 613]	1 to 1000
COC(=O)N1c2ccc3c(nc(CC(=O)N4CCCCC4)n3[C@@H]3CCC[C@@H](C(=O)O)C3)c2CC[C@@H]1C [Example 896]	1 to 1000
COC(=O)N1c2ccc3c(nc(CC(C(=O)O)c4ccc(C)cc4)n3C3COCC(F)(F)C3)c2CC[C@@H]1C (stereo partly shown) [Example 563]	1 to 1000
COC(=O)N1c2ccc3c(nc(Nc4ccnc(C)c4)n3[C@H]3CC[C@H](C(=O)O)CC3)c2CC[C@@H]1C [Example 943]	1 to 1000
COC(=O)N1c2ccc3c(nc(C4(Cn5cccn5)CC4)n3[C@@H]3CCC[C@@H](C(=O)O)C3)c2CC[C@@H]1C [Example 753]	1 to 1000
COC(=O)N1c2ccc3c(nc([C@@H](c4ccccc4)S(C)(=O)=O)n3[C@H]3CC[C@H](C(=O)O)CC3)c2CC[C@@H]1C [Example 779]	1 to 1000
COC(=O)N1c2ccc3c(nc(Cc4ccccc4)n3CCO)c2CC[C@@H]1C [Example 287, methyl (S)-2-benzyl-3-(2-hydroxyethyl)-7-methyl-3,7,8,9-tetrahydro-6H-imidazo[4,5-f]quinoline-6-carboxylate]	1 to 1000
COC(=O)N1c2ccc3c(nc(C(C)Cn4cccn4)n3C3CCCC(C(=O)O)C3)c2CC[C@@H]1C (stereo partly shown) [Example 878]	1 to 1000
COC(=O)N1c2ccc3c(nc(C(=O)N(C)C4CCCCC4)n3[C@@H]3CCC[C@@H](C(=O)O)C3)c2CC[C@@H]1C [Example 939]	1 to 1000
COC(=O)N1c2ccc3c(nc(CC(C(=O)O)c4ccccc4)n3C3CCCC(OC)C3)c2CC[C@@H]1C (stereo partly shown) [Example 757]	1 to 1000
COC(=O)N1c2ccc3c(nc(C(C)Cn4cccn4)n3C3CCS(=O)(=O)C3)c2CC[C@@H]1C (stereo partly shown) [Example 771]	1 to 1000
COC(=O)N1c2ccc3c(nc(CCn4ccccc4=O)n3CC(=O)Nc3ccn[nH]3)c2CC[C@@H]1C [Example 403]	1 to 1000
COC(=O)N1c2ccc3c(nc(Cc4cccc(OC(F)F)n4)n3[C@@H]3CCC[C@@H](C(=O)O)C3)c2CC[C@@H]1C [Example 593]	1 to 1000
COC(=O)N1c2ccc3c(nc(CCn4ccccc4=O)n3CC(=O)NCCc3ccccn3)c2CC[C@@H]1C [Example 374]	1 to 1000

SMILES	IC50 [µM]
COC(=O)N1c2ccc3c(nc(Cc4cccc(Cl)c4)n3[C@@H]3CCC[C@@H](C(=O)O)C3)c2CC[C@@H]1C [Example 616]	1 to 1000
COC(=O)N1c2ccc3c(nc(CCn4cccn4)n3CCN3CCOCC3)c2CC[C@@H]1C [Example 226]	1 to 1000
COC(=O)N1c2ccc3c(nc(CC(C(=O)O)c4ccc(C(F)F)cc4)n3C3COCC(F)(F)C3)c2CC[C@@H]1C (stereo partly shown) [Example 785]	1 to 1000
COC(=O)N1c2ccc3c(nc([C@H](C)c4ccccc4)n3[C@H]3CC[C@H](C(=O)O)CC3)c2CC[C@@H]1C [Example 56, trans-4-[(7S)-6-(methoxycarbonyl)-7-methyl-2-[(1R)-1-phenylethyl]-3H,6H,7H,8H,9H-imidazo[4,5-f]quinolin-3-yl]cyclohexane-1-carboxylic Acid]	1 to 1000
COC(=O)N1c2ccc3c(nc(C(C)Cc4cnn(C)c4)n3C3CCCC(C(=O)O)C3)c2CC[C@@H]1C (stereo partly shown) [Example 867]	1 to 1000
COC(=O)N1c2ccc3c(nc(Nc4ccc(Cl)cc4)n3[C@@H]3CCC[C@@H](C(=O)O)C3)c2CC[C@@H]1C [Example 831]	1 to 1000
COC(=O)N1c2ccc3c(nc(C(C)Cc4cnn(C)c4)n3C3CCNCC3)c2CC[C@@H]1C (stereo partly shown) [Example 928]	1 to 1000
COC(=O)N1c2ccc3c(nc(Cc4ccccc4)n3C3CCS(=O)(=O)CC3)c2CC[C@@H]1C [Example 254]	1 to 1000
COC(=O)N1c2ccc3c(nc(CCC4CCOCC4)n3[C@@H]3CCC[C@@H](C(=O)O)C3)c2CC[C@@H]1C [Example 648]	1 to 1000
COC(=O)N1c2ccc3c(nc(CC(C(=O)O)c4ccc(C)cc4)n3C3COCC(F)(F)C3)c2CC[C@@H]1C (stereo partly shown) [Example 700]	1 to 1000
COC(=O)N1c2ccc3c(nc(CCn4ccccc4=O)n3CC(=O)NC3CCOCC3)c2CC[C@@H]1C [Example 386]	1 to 1000
COC(=O)N1c2ccc3c(nc(CC(C(=O)O)c4ccc(C(F)F)cc4)n3C3CCCOC3)c2CC[C@@H]1C (stereo partly shown) [Example 901]	1 to 1000
COC(=O)N1c2ccc3c(nc(CC4CCCCC4)n3[C@@H]3CCC[C@@H](C(=O)O)C3)c2CC[C@@H]1C [Example 575]	1 to 1000
COC(=O)N1c2ccc3c(nc(Cc4ccccc4)n3[C@H]3CC[C@H](c4nnn[nH]4)CC3)c2CC[C@@H]1C [Example 283]	1 to 1000
COC(=O)N1c2ccc3c(nc(Cc4ccccc4)n3C[C@H]3CCCNC3)c2CC[C@@H]1C [Example 87]	1 to 1000
COC(=O)N1c2ccc3c(nc(C(C)Cn4cccn4)n3C3CCC(C(=O)O)CC3)c2CC[C@@H]1C (stereo partly shown) [Example 627]	1 to 1000
COC(=O)N1c2ccc3c(nc(Cc4ccccc4)n3[C@H]3CC[C@@](C)(C(=O)O)CC3)c2CC[C@@H]1C [Example 26]	1 to 1000
COC(=O)N1c2ccc3c(nc(CC(C(=O)O)c4ccc(F)cc4)n3C3CCCOC3)c2CC[C@@H]1C (stereo partly shown) [Example 773]	1 to 1000
COC(=O)N1c2ccc3c(nc(C(O)CC4CCC(F)(F)CC4)n3C3CCCC(C(=O)O)C3)c2CC[C@@H]1C (stereo partly shown) [Example 596]	1 to 1000
COC(=O)N1c2ccc3c(nc(CCn4cccn4)n3CC(=O)N[C@H](C)CO)c2CC[C@@H]1C [Example 349]	1 to 1000
COC(=O)N1c2ccc3c(nc(Cn4ccccc4=O)n3[C@H]3CCCOC3)c2CC[C@@H]1C [Example 260]	1 to 1000

SMILES	IC50 [µM]
COC(=O)N1c2ccc3c(nc(CCn4cccn4)n3CC(=O)NCc3ccnc(O)c3)c2CC[C@@H]1C [Example 339]	1 to 1000
COC(=O)N1c2ccc3c(nc(CCn4ccccc4=O)n3CC(=O)NCC#N)c2CC[C@@H]1C [Example 394]	1 to 1000
COC(=O)N1c2ccc3c(nc(Cc4cc(F)ccc4OC)n3[C@H]3CC[C@H](C(=O)O)CC3)c2CC[C@@H]1C [Example 561]	1 to 1000
COC(=O)N1c2ccc3c(nc(CCc4ccc(C)c(F)c4)n3[C@@H]3CCC[C@@H](C(=O)O)C3)c2CC[C@@H]1C [Example 550]	1 to 1000
COC(=O)N1c2ccc3c(nc(C[C@@H](C(=O)O)c4ccccc4)n3C)c2CC[C@@H]1C [Example 136, (R)-3-((S)-6-(methoxycarbonyl)-3,7-dimethyl-6,7,8,9-tetrahydro-3H-imidazo[4,5-f]quinolin-2-yl)-2-phenylpropanoic Acid]	1 to 1000
COC(=O)N1c2ccc3c(nc(C(C)Cc4cnn(C)c4)n3C3CCC(C(=O)O)CC3)c2CC[C@@H]1C (stereo partly shown) [Example 671]	1 to 1000
COC(=O)N1c2ccc3c(nc(CCn4cccn4)n3CCN3CCNCC3)c2CC[C@@H]1C [Example 935]	1 to 1000
COC(=O)N1c2ccc3c(nc(CCn4ccccc4=O)n3CC(=O)N3CC[C@@H](NC(C)=O)C3)c2CC[C@@H]1C [Example 397]	1 to 1000
COC(=O)N1c2ccc3c(nc(COC4CCCC4)n3[C@@H]3CCC[C@@H](C(=O)O)C3)c2CC[C@@H]1C [Example 711]	1 to 1000
COC(=O)N1c2ccc3c(nc(Nc4cccc(F)c4)n3[C@@H]3CCC[C@@H](C(=O)O)C3)c2CC[C@@H]1C [Example 802]	1 to 1000
COC(=O)N1c2ccc3c(nc(C(C)Cn4cc(Cl)cn4)n3C3CCS(=O)(=O)C3)c2CC[C@@H]1C (stereo partly shown) [Example 926]	1 to 1000
COC(=O)N1c2ccc3c(nc(C[C@H](C(=O)O)c4ccccc4)n3CCN(C)C)c2CC[C@@H]1C [Example 138, (S)-3-((S)-3-(2-(dimethylamino)ethyl)-6-(methoxycarbonyl)-7-methyl-6,7,8,9-tetrahydro-3H-imidazo[4,5-f]quinolin-2-yl)-2-phenylpropanoic Acid]	1 to 1000
COC(=O)N1c2ccc3c(nc(CCn4cccn4)n3CC(=O)NCc3ccncn3)c2CC[C@@H]1C [Example 336]	1 to 1000
COC(=O)N1c2ccc3c(nc(CCn4cccn4)n3CCN(C)CC(C)(C)O)c2CC[C@@H]1C [Example 304]	1 to 1000
COC(=O)N1c2ccc3c(nc(Cc4ccccc4)n3[C@H]3CCC[C@H](c4nnn[nH]4)C3)c2CC[C@@H]1C [Example 282, methyl (S)-3-((1S,3S)-3-(1H-tetrazol-5-yl)cyclohexyl)-2-benzyl-7-methyl-3,7,8,9-tetrahydro-6H-imidazo[4,5-f]quinoline-6-carboxylate]	1 to 1000
COC(=O)N1c2ccc3c(nc(CCc4ccn(C)n4)n3[C@H]3CC[C@H](C(=O)O)CC3)c2CC[C@@H]1C [Example 45]	1 to 1000
COC(=O)N1c2ccc3c(nc(Cc4ccc(OC(F)F)nc4)n3[C@@H]3CCC[C@@H](C(=O)O)C3)c2CC[C@@H]1C [Example 619]	1 to 1000
COC(=O)N1c2ccc3c(nc(Cc4ccc(OC)cc4)n3[C@@H]3CCC[C@@H](C(=O)O)C3)c2CC[C@@H]1C [Example 568]	1 to 1000
COC(=O)N1c2ccc3c(nc(Cc4cncc(C5CC5)n4)n3[C@@H]3CCC[C@@H](C(=O)O)C3)c2CC[C@@H]1C [Example 665]	1 to 1000
